Source: patent US11590116B2 (THERAVANCE BIOPHARMA R&D IP, LLC, priority 2019, dated 2023)

What was measured:
[1] = biological target: T1, recombinant human ALK5 (TGF-βR1) protein (Homo sapiens, UniProt P36897); test: Biochemical ALK5 (TGF-βR1) assay to measure pKi (LANCE Ultra ULight kinase assay); conditions: apparent pKi from pIC50 by Cheng-Prusoff, read-out: ALK5 pKi (converted)
T1 construct: purchased Life Technologies PR9075A
T1 sequence (P36897 34-503): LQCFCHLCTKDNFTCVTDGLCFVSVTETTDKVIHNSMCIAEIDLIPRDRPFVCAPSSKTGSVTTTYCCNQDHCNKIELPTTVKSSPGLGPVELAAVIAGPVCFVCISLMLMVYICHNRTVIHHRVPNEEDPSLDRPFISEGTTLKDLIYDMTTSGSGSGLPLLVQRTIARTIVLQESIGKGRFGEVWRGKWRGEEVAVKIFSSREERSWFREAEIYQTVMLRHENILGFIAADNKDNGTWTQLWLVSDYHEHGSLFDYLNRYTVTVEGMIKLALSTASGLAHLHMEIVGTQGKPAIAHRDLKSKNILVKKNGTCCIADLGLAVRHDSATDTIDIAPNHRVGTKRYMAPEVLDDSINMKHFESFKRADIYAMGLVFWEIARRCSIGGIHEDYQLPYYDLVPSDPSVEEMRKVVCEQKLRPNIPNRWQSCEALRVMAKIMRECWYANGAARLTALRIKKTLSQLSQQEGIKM
In short: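 Dose range 10 μM–25 pM; enzyme + compound 60 min RT; ATP added (5× stock 125 μM, 2 mM DTT); 60 min 37 °C; stop with EDTA + Eu anti-phospho-Topo IIα Thr1342 Ab; TR-FRET ex 320/340, em 665 nm. 4-param pIC50 → pKi (Cheng-Prusoff).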

[2] = tested on: TGF-β-stimulated SMAD3 phosphorylation in BEAS-2B cells; test: Cellular ALK5 potency assay, inhibition of TGF-β stimulated pSMAD3 formation in BEAS-2B cells; format: cell-based; conditions: Homo sapiens; inhibition of TGF-β stimulated pSMAD3 formation, BEAS-2B cells; read-out: BEAS2B pIC50 (converted)
In short: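 pSMAD3 was quantified by AlphaLISA in BEAS-2B lysates after 10 ng/mL TGF-β (final) for 30 min. Before stimulation, cells received compound for 1 h at 37° C in supplemented HBSS. Values are pIC50, relative to TGF-β-stimulated cells without compound.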

Compound	Ki [1] [nM]	IC50 [2] [nM]
Cc1cccc(-c2[nH]cnc2-c2ccc3ncc(-c4ccnc(C(=O)OC5CCNCC5)c4)cc3c2)n1 [Compound 799, 4-piperidyl 4-[6-[5-(6-methyl-2-pyridyl)-1H-imidazol-4-yl]-3-quinolyl]pyridine-2-carboxylate]	0.0398 to 0.316	200 to 1260
CCOC(=O)c1ccnc2ccc(-c3c[nH]nc3-c3cccc(C)n3)nc12 [Compound 800, ethyl 6-[3-(6-methyl-2-pyridyl)-1H-pyrazol-4-yl]-1,5-naphthyridine-4-carboxylate]	0.0398 to 0.316	25.1 to 158
Cc1cccc(-c2n[nH]cc2-c2ccc3nccc(CO)c3n2)n1 [Compound 801, [6-[3-(6-methyl-2-pyridyl)-1H-pyrazol-4-yl]-1,5-naphthyridin-4-yl]methanol]	0.398 to 3.16	200 to 1260
Cc1cccc(-c2n[nH]cc2-c2ccc3nccc(C(=O)NCCN4CCOCC4)c3n2)n1 [Compound 802, 6-[3-(6-methyl-2-pyridyl)-1H-pyrazol-4-yl]-N-(2-morpholinoethyl)-1,5-naphthyridine-4-carboxamide]	0.0398 to 0.316	200 to 1260
Cc1cccc(-c2n[nH]cc2-c2ccc3nccc(C(N)=O)c3n2)n1 [Compound 806, 6-[3-(6-methyl-2-pyridyl)-1H-pyrazol-4-yl]-1,5-naphthyridine-4-carboxamide]	0.398 to 3.16	25.1 to 158
Cc1cccc(-c2n[nH]cc2-c2ccc3nccc(CCC(=O)N4CCOCC4)c3n2)n1 [Compound 810, 3-[6-[3-(6-methyl-2-pyridyl)-1H-pyrazol-4-yl]-1,5-naphthyridin-4-yl]-1-morpholino-propan-1-one]	0.398 to 3.16	200 to 1260
Cc1cccc(-c2n[nH]cc2-c2ccc3nccc(CN4CCOCC4)c3n2)n1 [Compound 811, 4-[[6-[3-(6-methyl-2-pyridyl)-1H-pyrazol-4-yl]-1,5-naphthyridin-4-yl]methyl]morpholine]	0.0398 to 0.316	200 to 1260
Cc1cccc(-c2n[nH]cc2-c2ccc3nccc(CCCN4CCOCC4)c3n2)n1 [Compound 812, 4-[3-[6-[3-(6-methyl-2-pyridyl)-1H-pyrazol-4-yl]-1,5-naphthyridin-4-yl]propyl]morpholine]	0.398 to 3.16	200 to 1260
CCOC(=O)CCc1ccnc2ccc(-c3c[nH]nc3-c3cccc(C)n3)nc12 [Compound 814, ethyl 3-[6-[3-(6-methyl-2-pyridyl)-1H-pyrazol-4-yl]-1,5-naphthyridin-4-yl]propanoate]	0.0398 to 0.316	25.1 to 158
Cc1cccc(-c2n[nH]cc2-c2ccc3nccc(CNCCCN4CCOCC4)c3n2)n1 [Compound 815, N-[[6-[3-(6-methyl-2-pyridyl)-1H-pyrazol-4-yl]-1,5-naphthyridin-4-yl]methyl]-3-morpholino-propan-1-amine]	0.0398 to 0.316	25.1 to 158
Cc1cccc(-c2n[nH]cc2-c2ccc3nccc(CNCCN4CCOCC4)c3n2)n1 [Compound 816, N-[[6-[3-(6-methyl-2-pyridyl)-1H-pyrazol-4-yl]-1,5-naphthyridin-4-yl]methyl]-2-morpholino-ethanamine]	0.0398 to 0.316	25.1 to 158
COC(=O)c1coc(-c2ccnc3ccc(-c4c[nH]nc4-c4cccc(C)n4)nc23)n1 [Compound 817, methyl 2-[6-[3-(6-methyl-2-pyridyl)-1H-pyrazol-4-yl]-1,5-naphthyridin-4-yl]oxazole-4-carboxylate]	0.398 to 3.16	200 to 1260
CNC(=O)c1ccnc2ccc(-c3c[nH]nc3-c3cccc(C)n3)nc12 [Compound 818, N-methyl-6-[5-(6-methyl-2-pyridyl)-1H-pyrazol-4-yl]-1,5-naphthyridine-4-carboxamide]	0.0398 to 0.316	25.1 to 158
Cc1cccc(-c2n[nH]cc2-c2ccc3nccc(CNCCCN4CCN(C(C)C)CC4)c3n2)n1 [Compound 819, 3-(4-isopropylpiperazin-1-yl)-N-[[6-[3-(6-methyl-2-pyridyl)-1H-pyrazol-4-yl]-1,5-naphthyridin-4-yl]methyl]propan-1-amine]	0.0398 to 0.316	25.1 to 158
Cc1cccc(-c2n[nH]cc2-c2ccc3nccc(CNCCN4CCN(C(C)C)CC4)c3n2)n1 [Compound 820, 2-(4-isopropylpiperazin-1-yl)-N-[[6-[3-(6-methyl-2-pyridyl)-1H-pyrazol-4-yl]-1,5-naphthyridin-4-yl]methyl]ethanamine]	0.0398 to 0.316	25.1 to 158
CCOC(=O)CN1CCN(Cc2ccnc3ccc(-c4c[nH]nc4-c4cccc(C)n4)nc23)CC1 [Compound 821, ethyl 2-[4-[[6-[3-(6-methyl-2-pyridyl)-1H-pyrazol-4-yl]-1,5-naphthyridin-4-yl]methyl]piperazin-1-yl]acetate]	0.398 to 3.16	25.1 to 158
Cc1cccc(-c2n[nH]cc2-c2ccc3nccc(CN4CCN(CC(=O)O)CC4)c3n2)n1 [Compound 822, 2-[4-[[6-[3-(6-methyl-2-pyridyl)-1H-pyrazol-4-yl]-1,5-naphthyridin-4-yl]methyl]piperazin-1-yl]acetic acid]	0.398 to 3.16	25.1 to 158
Cc1cccc(-c2n[nH]cc2-c2ccc3nccc(NCCN4CCOCC4)c3n2)n1 [Compound 823, 6-[3-(6-methyl-2-pyridyl)-1H-pyrazol-4-yl]-N-(2-morpholinoethyl)-1,5-naphthyridin-4-amine]	0.398 to 3.16	200 to 1260
Cc1cccc(-c2n[nH]cc2-c2ccc3nccc(-c4cnco4)c3n2)n1 [Compound 824, 5-[6-[3-(6-methyl-2-pyridyl)-1H-pyrazol-4-yl]-1,5-naphthyridin-4-yl]oxazole]	0.0398 to 0.316	< 20
Cc1cccc(-c2n[nH]cc2-c2ccc3nccc(NCC(=O)N4CCOCC4)c3n2)n1 [Compound 825, 2-[[6-[3-(6-methyl-2-pyridyl)-1H-pyrazol-4-yl]-1,5-naphthyridin-4-yl]amino]-1-morpholino-ethanone]	0.398 to 3.16	25.1 to 158
Cc1cccc(-c2n[nH]cc2-c2ccc3nccc(C(=O)OCCCN4CCOCC4)c3n2)n1 [Compound 826, 3-morpholinopropyl 6-[3-(6-methyl-2-pyridyl)-1H-pyrazol-4-yl]-1,5-naphthyridine-4-carboxylate]	0.398 to 3.16	25.1 to 158
Cc1cccc(-c2n[nH]cc2-c2ccc3nccc(C(=O)OCCN4CCOCC4)c3n2)n1 [Compound 827, 2-morpholinoethyl 6-[3-(6-methyl-2-pyridyl)-1H-pyrazol-4-yl]-1,5-naphthyridine-4-carboxylate]	0.398 to 3.16	25.1 to 158
Cc1cccc(-c2n[nH]cc2-c2ccc3nccc(CN(C)CCN4CCOCC4)c3n2)n1 [Compound 828, N-methyl-N-[[6-[3-(6-methyl-2-pyridyl)-1H-pyrazol-4-yl]-1,5-naphthyridin-4-yl]methyl]-2-morpholino-ethanamine]	3.98 to 31.6	25.1 to 158
CNCc1ccnc2ccc(-c3c[nH]nc3-c3cccc(C)n3)nc12 [Compound 829, N-methyl-1-[6-[3-(6-methyl-2-pyridyl)-1H-pyrazol-4-yl]-1,5-naphthyridin-4-yl]methanamine]	0.398 to 3.16	25.1 to 158
Cc1cccc(-c2n[nH]cc2-c2ccc3nccc(CN(C)C)c3n2)n1 [Compound 830, N,N-dimethyl-1-[6-[3-(6-methyl-2-pyridyl)-1H-pyrazol-4-yl]-1,5-naphthyridin-4-yl]methanamine]	3.98 to 31.6	25.1 to 158
Cc1cccc(-c2n[nH]cc2-c2ccc3nccc(N(C)CCN4CCOCC4)c3n2)n1 [Compound 831, N-methyl-6-[3-(6-methyl-2-pyridyl)-1H-pyrazol-4-yl]-N-(2-morpholinoethyl)-1,5-naphthyridin-4-amine]	0.0398 to 0.316	200 to 1260
Cc1cccc(-c2n[nH]cc2-c2ccc3nccc(-c4cnoc4)c3n2)n1 [Compound 832, 4-[6-[3-(6-methyl-2-pyridyl)-1H-pyrazol-4-yl]-1,5-naphthyridin-4-yl]isoxazole]	0.0398 to 0.316	25.1 to 158
Cc1cccc(-c2n[nH]cc2-c2ccc3nccc(-c4cnn(CCN5CCOCC5)c4)c3n2)n1 [Compound 833, 4-[2-[4-[6-[3-(6-methyl-2-pyridyl)-1H-pyrazol-4-yl]-1,5-naphthyridin-4-yl]pyrazol-1-yl]ethyl]morpholine]	0.0398 to 0.316	25.1 to 158
Cc1cccc(-c2n[nH]cc2-c2ccc3nccc(-c4cn[nH]c4)c3n2)n1 [Compound 834, 2-[3-(6-methyl-2-pyridyl)-1H-pyrazol-4-yl]-8-(1H-pyrazol-4-yl)-1,5-naphthyridine]	0.0398 to 0.316	< 20
Cc1cccc(-c2n[nH]cc2-c2ccc3nccc(N)c3n2)n1 [Compound 835, 6-[3-(6-methyl-2-pyridyl)-1H-pyrazol-4-yl]-1,5-naphthyridin-4-amine]	0.398 to 3.16	25.1 to 158
